The source of these data is US4916145A, “Substituted n-[(pyridyl)alkyl]aryl-carboxamide” (Hoffmann-La Roche Inc., priority 1987, dated 1990).

In assay [1] the target is T1, PAF binding, dog platelets (Canis lupus familiaris, UniProt A0A8I3NSH0).
T1 sequence (A0A8I3NSH0 1-343): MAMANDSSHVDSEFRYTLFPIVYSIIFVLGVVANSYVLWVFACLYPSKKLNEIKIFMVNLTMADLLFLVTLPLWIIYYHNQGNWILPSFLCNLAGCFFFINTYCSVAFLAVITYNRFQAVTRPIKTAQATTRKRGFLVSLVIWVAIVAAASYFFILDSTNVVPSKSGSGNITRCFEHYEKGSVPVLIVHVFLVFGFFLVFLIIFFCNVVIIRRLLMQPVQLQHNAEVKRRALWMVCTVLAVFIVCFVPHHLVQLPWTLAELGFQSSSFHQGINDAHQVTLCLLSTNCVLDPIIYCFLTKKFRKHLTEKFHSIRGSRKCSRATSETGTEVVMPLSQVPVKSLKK
The assay can be described thus: PAF Binding Assay (3H-PAF binding to washed dog platelets). Conditions: 10 minutes at room temperature.
Method: The binding assay was performed in 400 μl polyethylene microcentrifuge tubes (Beckman) containing 50 μl of an oil mixture of 2 parts Siliconol AR200 (Serva): 1 part Silicone Fluid (Arthur H. Thomas). Buffer, standards, or analogs 150 μl total volume) were added to the tubes. Radiolabelled ^3 H-PAF (50 μl) was then added to the tubes. The reaction was started by the addition of 50 μl of dog platelets (2×10^7 platelets). The tubes were capped, inverted several times to mix, and incubated for 10 minutes at room temperature. The platelets were separated from the incubation mixture by centrifuging 1 minute in a Beckman Microfuge B centrifuge. The tip of the microfuge tube was cut off, and the platelets were washed out of the tip with 200 μl of 50% methanol (Burdick and Jackson). Aquasol (NEN, 10 ml) was added and the radioactivity in the samples was determined using an LS 8100 Beckman liquid scintillation counter linked to a Techtran tape recorder. Data was processed through an in-house computer system. Alternatively, radioactivity was determined using a Searle Mark III liquid scintillation counter linked to a Iso-Data microprocessor.
Blood was collected from anesthesized or unanesthesized dogs into 5ml plastic centrifuge tubes containing 3.8% sodium citrate as the anticoagulant (1 volume of citrate/9 volumes of blood). The red cells were removed by centrifugation for 15 minutes at 600 rpm (100-125 g) at room temperature. An aliquot of the supernatant platelet rich Plasma (PRP) was saved for cell counting and the remainder was acidified to pH 6.5 with 0.15M citric acid. The platelet pellet was obtained after a 10 minute centrifugation at 2000 rpm (1000 g) at room temperature. Washed platelets were prepared by resuspending the platelet pellet once with PBS containing 1 mM EDTA, centrifuging as noted, and then resuspending the platelets in 0.1% BSA-PBS. An aliquot of the washed platelets was counted, platelets used for binding assays were diluted to 2×10^7 platelets/assay tube (4×10^8 platelets/ml).

In assay [2] the test system is PAF-Induced Bronchoconstriction. Briefly: PAF-Induced Bronchoconstriction Assay. Conditions: for inhibition in vivo at 1 mg/kg / inhibition in vivo at 50 mg/kg: Cavia porcellus; for inhibition in vivo at 1 mg/kg: 1 min; for inhibition in vivo at 50 mg/kg: po, 2 hours pretreatment. It counts as in vivo, guinea pig. Here is the method: The in vivo ability of compounds to inhibit PAF-induced bronchoconstriction in guinea pigs was assessed by the intravenous and oral routes of administration. The intravenous technique utilized male guinea pigs (Hartley strain, Charles River) weighing 400-600 g. Animals were anesthetized with urethane (2 g/kg) intraperitoneally and a polyethylene cannula was inserted into the jugular vein for intravenous drug administration. Tracheal pressure ([…]) was recorded from a Statham pressure transducer (P 32 AA). Propranolol was administered 5 minutes prior to challenge with PAF. Two minutes later spontaneous breathing was arrested with succinylcholine chloride (1.2 mg/kg) administered intravenously, and the animals were ventilated with a Harvard (Model 680) small animal respirator set at 40 breaths/min and 4.0 cc stroke volume. Control vehicle or test drug was administered through the cannula into the jugular vein 1 minute before the animals were challenged with a maximum constrictory dose of PAF (1.0 μg/kg) given intravenously. The change in tracheal pressure was averaged for four control and four drug-treated animals and percent inhibition was calculated.
For determination of oral activity, animals were dosed with test compound or vehicle two hours prior to challenge with PAF (1.0 μg/kg, i.v.).
The change in tracheal pressure is determined by subtracting the steady state baseline achieved after administration of succinylcholine from the peak bronchoconstriction seen after challenge with PAF. The mean change in tracheal pressure is calculated for each test compound and compared to the mean change in tracheal pressure for the control animals to give the percent inhibition of bronchoconstriction. The standard error is calculated as the standard error of the mean.

Where [3] appears, read: 1 mg/kg iv, 1 minute pretreatment.

SMILES strings stand for the structures.

In assay [1], `COc1ccc(-c2ccc(C(=O)NCCCCc3cccnc3)cc2OC)cc1OC` [2,3',4'-trimethoxy-N-[4-(3-pyridinyl)butyl]-[1,1'-biphenyl]-4-carboxamide] yielded an IC50 of 300 nM. Besides, in assay [2] (setting [3]), the inhibition in vivo at 1 mg/kg is 58 ± 10%.

On to `COc1ccc(-c2ccc(C(=O)NCCCCc3cccnc3)cc2Br)cc1OC` [2-Bromo-3',4'-dimethoxy-N-[4-(3-pyridinyl)butyl]-[1,1'biphenyl]-4-carboxamide], for which the IC50 in assay [1] was found to be 200 nM. Besides, the inhibition in vivo at 1 mg/kg in assay [2] (setting [3]) amounted to 81 ± 10%. In assay [2], the inhibition in vivo at 50 mg/kg is 74 ± 12%.

As for `CCCCc1cc(C(=O)NCCCCc2cccnc2)ccc1-c1ccc(OC)c(OC)c1` [2-Butyl-3',4'-dimethoxy-N-[4-(3-pyridinyl)butyl][1,1'-biphenyl)-4-carboxamide], the inhibition in vivo at 1 mg/kg in assay [2] (setting [3]) came out at 6 ± 4%.

On to `CCCCc1cc(C(=O)NCCCCc2cccnc2)ccc1-c1ccccc1` [2-Butyl-N-[4-(3-pyridinyl)butyl][1,1'-biphenyl]-4-carboxamide], for which the half-maximal inhibitory concentration (IC50) in assay [1] was 500 nM. For the same molecule, the inhibition in vivo at 1 mg/kg in assay [2] (setting [3]) came to 27 ± 10%.

For `COc1ccc(-c2ccc(C(=O)NCCCCc3cccnc3)cc2[N+](=O)[O-])cc1OC` [2-Nitro-3',4'-dimethoxy-N-[4-(3-pyridinyl)-butyl][1,1'-biphenyl]-4-carboxamide], the IC50 in assay [1] stood at 200 nM. In addition, the inhibition in vivo at 1 mg/kg in assay [2] (setting [3]) turned out to be 81 ± 15%. In assay [2], the inhibition in vivo at 50 mg/kg is 62 ± 15%.

In the case of `CCCc1cc(C(=O)NCCCCc2cccnc2)ccc1-c1ccccc1` [2-Propyl-N-[4-(3-pyridinyl)butyl][1,1'-biphenyl]-4-carboxamide], the IC50 in assay [1] was 60 nM. For the same molecule, in assay [2] (setting [3]), the inhibition in vivo at 1 mg/kg worked out at 38 ± 8%.

Consider `Cc1ccc(-c2ccc(C(=S)NCCCCc3cccnc3)cc2)cc1C` [3',4'-Dimethyl-N-[4-(3-pyridinyl)butyl][1,1-biphenyl]-4-carbothioamide], for which the IC50 in assay [1] turned out to be 600 nM. In addition, the “PAF-Induced Bronchoconstriction % Inhibition, 1 mg/kg iv” value in assay [2] (setting [3]) was “potentiation”.

In assay [1], `CCCCc1ccc(C(=O)NCCCCc2cccnc2)cc1CCCC` [3,4-Dibutyl-N-[4-(3-pyridinyl)butyl]benzamide] showed an IC50 of more than 1000 nM.

`O=C(NCCCCc1cccnc1)c1ccc(-c2cccc(F)c2)c(-c2cccc(F)c2)c1` [3,4-bis-(3-Fluorophenyl)-N-[4-(3-pyridinyl)butyl]-benzamide]: in assay [1], the IC50 is 400 nM. The inhibition in vivo at 1 mg/kg in assay [2] (setting [3]) amounted to 12 ± 2%.

Regarding `COc1ccc(-c2ccc(C(=O)NCCCCc3cccnc3)cc2-c2ccc(OC)cc2)cc1` [3,4-bis-(4,Methoxyphenyl)-N-[4-(3-pyridinyl)butyl]-benzamide], the IC50 in assay [1] is 125 nM. For the same molecule, in assay [2] (setting [3]), the inhibition in vivo at 1 mg/kg stood at 26 ± 6%.

For `Cc1ccc(-c2ccc(-c3nnn(CCCc4cccnc4)n3)cc2)cc1C` [3-[3-[5-(3',4'-Dimethyl-[1,1'-biphenyl]-4-yl)-2H-tetrazol-2-yl]propyl]pyridine], the concentration for half-maximal inhibition (IC50) in assay [1] is more than 1000 nM. Besides, the inhibition in vivo at 1 mg/kg in assay [2] (setting [3]) turned out to be 11 ± 3%.

Take `Cc1ccc(-c2ccc(-c3nnn(CCCCc4cccnc4)n3)cc2)cc1C` [3-[4-[5-(3',4'-Dimethyl-[1,1'-biphenyl]-4-yl)-2H-tetrazol-2-yl]butyl]pyridine]: in assay [1], the IC50 was more than 1000 nM. In addition, the inhibition in vivo at 1 mg/kg in assay [2] (setting [3]) was 17 ± 15%.

`Cc1ccc(-c2ccc(-c3nnn(CCCCCCc4cccnc4)n3)cc2)cc1C` [3-[6-[5-(3',4'-Dimethyl-[1,1'-biphenyl]-4-yl)-2H-tetrazol-2-yl]hexyl]pyridine] displayed an IC50 in assay [1] of more than 1000 nM. Moreover, the inhibition in vivo at 1 mg/kg in assay [2] (setting [3]) came to 40 ± 4%.

`O=C(NCCCCc1cccnc1)c1ccc(C2CCCCC2)cc1` [4-Cyclohexyl-N-[4-(3-pyridinyl)butyl]-benzamide]: in assay [1], the IC50 amounted to 250 nM. Besides, the inhibition in vivo at 1 mg/kg in assay [2] (setting [3]) was 17 ± 7%.

For the molecule `COc1ccc(-c2ccc(C(=O)N[C@H](C)CCCc3cccnc3)cc2Br)cc1OC` [(R)-2-Bromo-3',4'-dimethoxy-N-[1-methyl-4-(3-pyridinyl)-butyl][1,1'-biphenyl]-4-carboxamide], the IC50 in assay [1] was 180 nM. Moreover, the inhibition in vivo at 1 mg/kg in assay [2] (setting [3]) was determined as 98 ± 0.7%. For the same molecule, the inhibition in vivo at 50 mg/kg in assay [2] is 97 ± 1%.

Take `CCCCc1cc(C(=O)N[C@H](C)CCCc2cccnc2)ccc1-c1ccc(OC)c(OC)c1` [(R)-2-Butyl-3',4'-dimethoxy-N-[1-Methyl-4-(3-pyridinyl)butyl][1,1'-biphenyl]-4-carboxamide]: the inhibition in vivo at 1 mg/kg in assay [2] (setting [3]) amounted to 55 ± 12%.

In turn, `CCc1cc(C(=O)N[C@H](C)CCCc2cccnc2)ccc1-c1ccc(OC)c(OC)c1` [(R)-2-Ethyl-3',4'-dimethoxy-N-[1-methyl-4-(3-pyridinyl)butyl][1,1'-biphenyl]-4-carboxamide] returned an IC50 in assay [1] of 4 nM. The inhibition in vivo at 1 mg/kg in assay [2] (setting [3]) came out at 93 ± 1%. Further, the inhibition in vivo at 50 mg/kg in assay [2] was 89 ± 5%.

The molecule `COc1ccc(-c2ccc(C(=O)N[C@H](C)CCCc3cccnc3)cc2[N+](=O)[O-])cc1OC` [(R)-2-Nitro-3',4'-dimethoxy-N-[1-methyl-4-(3-pyridinyl)-butyl][1,1'-biphenyl]-4-carboxamide] returned an IC50 in assay [1] of 200 nM. The inhibition in vivo at 1 mg/kg in assay [2] (setting [3]) amounted to 97 ± 4%. In addition, the inhibition in vivo at 50 mg/kg in assay [2] came to 89 ± 8%.

Take `CCCc1cc(C(=O)N[C@H](C)CCCc2cccnc2)ccc1-c1ccccc1` [(R)-2-Propyl-N-[1-methyl-4-(3-pyridinyl)-butyl]-[1,1'-biphenyl]-4-carboxamide]: the IC50 in assay [1] was found to be 50 nM. Further, in assay [2] (setting [3]), the inhibition in vivo at 1 mg/kg was 12 ± 6%.

In assay [1], `C=CCc1cc(C(=O)N[C@H](C)CCCc2cccnc2)ccc1-c1ccc(OC)c(OC)c1` [(R)-3',4'-Dimethoxy-N-[1-methyl-4-(3-pyridinyl)butyl]-2-(2-propenyl)-[1,1'-biphenyl]-4-carboxamide] yielded an IC50 of 80 nM. In addition, the inhibition in vivo at 1 mg/kg in assay [2] (setting [3]) amounted to 80 ± 11%. The inhibition in vivo at 50 mg/kg in assay [2] is 93 ± 3%.

In assay [1], `CCCc1cc(C(=O)N[C@H](C)CCCc2cccnc2)ccc1-c1ccc(OC)c(OC)c1` [(R)-3',4'-Dimethoxy-N-[1-methyl-4-(3-pyridinyl)butyl]-2-propyl-[1,1'-biphenyl]-4-carboxamide] displayed an IC50 of 50 nM. In addition, the inhibition in vivo at 1 mg/kg in assay [2] (setting [3]) was 28 ± 12%.

Turning to `COc1ccc(-c2ccc(C(=O)N[C@H](C)CCCc3cccnc3)cc2)cc1OC` [(R)-3',4'-Dimethoxy-N-[1-methyl-4-(3-pyridinyl)butyl][1,1'-biphenyl]-4-carboxamide], in assay [2] (setting [3]), the inhibition in vivo at 1 mg/kg was determined as 65 ± 11%. Besides, the inhibition in vivo at 50 mg/kg in assay [2] amounted to 88 ± 3%.

On to `C[C@H](CCCc1cccnc1)NC(=O)c1ccc(-c2ccccc2)c(-c2ccccc2)c1` [(R)-3,4-diphenyl-N-[1-methyl-4-(3-pyridinyl)-butyl]benzamide], for which the IC50 in assay [1] was 250 nM. Further, in assay [2] (setting [3]), the inhibition in vivo at 1 mg/kg was found to be 31 ± 4%.

For the molecule `O=C(NCCCCc1cccnc1)c1cccc(-c2ccccc2)c1` [N-[4-(3-pyridinyl)butyl][1,1'-biphenyl]-3-carboxamide], in assay [1], the IC50 was 620 nM. Further, the inhibition in vivo at 1 mg/kg in assay [2] (setting [3]) amounted to 14 ± 10%.
